These results are taken from US20240158425A1, “MODIFIED ADENINES” (NUCLERA LTD, priority 2021, published 2024).

Common to all, as to assay type: physicochemical
Data set [1] in a line: Stability in Oxime Removal Solution (1×ORS) buffer, monitored by LC/MS. The following applies: 1×ORS buffer (methoxyamine), 24 h at 37 deg C. As to the method: (§1) Analytical LC/MS was performed on the Agilent 1100 Series system. Nucleosides were analysed using gradient of acetonitrile in 20 mM NH4OAc, pH 4.5. The 1 M stock solution of NH4OAc, pH 4.5 was prepared by dissolving NH4OAc (g) in H2O and adjusted to pH 4.5 with acetic acid. This was further diluted with water to the concentrations required for the chromatography.
(§2) Column: Ascentis Express C18 15×4.6 mm, 5 μm; Column temperature 30° C., Flow rate 1 mL/min, UV detection 254 nm.
Stock solution of ORS buffer (2×) was prepared from methoxyamine hydrochloride (60 mg, 0.71 mmol), water (MilliQ) (200 uL), pH 5.5 sodium acetate (200 uL) and 10 M sodium hydroxide (53.4 uL) and water (1.4 mL). 2-chloro-2′-deoxyadenosine (1 mg) was dissolved in milliQ water (0.5 mL) and 2×ORS (0.5 mL) was added. The resultant solution was incubated at 37 deg C. and the stability was monitored at intervals using LC/MS. […] 2. Stability of 2-fluoro-2′-deoxyadenosine in ORS Buffer
2-fluoro-2′-deoxyadenosine (1 mg) was dissolved in milliQ water (0.5 mL) and 2×ORS (0.5 mL) was added. The resultant solution was incubated at 37 deg C. and the stability was monitored at intervals using LC/MS.

A short description of data set [2]: Stability of 2-halogenated 2′-deoxyadenosines and 2′-deoxyadenosine in NDS buffer (sodium nitrite, pH 5.5), LC/MS. The following applies: for Reaction in NDS buffer (products formed; deaminated nucleoside): LC/MS. As to the method: as §1, §2
2 M sodium acetate pH 5.5 buffer was made from sodium acetate trihydrate (2.72 g) made up to 9.5 mL with water, then titrated to pH 5.5 with acetic acid, and finally made up to 10 mL. NDS buffer was made from acetate solution (3.934 mL), sodium nitrite (380 mg, 5.5 mmol) and water (3.934 mL), then adjusted to pH 5.5 with 10 M sodium hydroxide (˜1 drop required). 2-chloro-2′-deoxyadenosine (0.5 mg), 2-fluoro-2′-deoxyadenosine (0.5 mg) and 2′-deoxyadenosine (0.5 mg) as a control were respectively placed in three vials and each dissolved in 1 mL solution of NDS buffer. The stability was monitored at intervals using LC/MS.

Data set [3] in a line: Stability of 8-aza-adenosine and 2′-deoxyadenosine in NDS buffer, LC/MS. The following applies: for Reaction in NDS buffer (products formed; deaminated nucleoside): LC/MS. As to the method:
A solution of NDS made up from sodium nitrite, sodium acetate pH 5.5) and titrated to pH 5.5 with 10 M NaOH was obtained (2 mL).
1 mL aliquots of this solution were added to 8-aza-2′-dA (0.5 mg) and 2′-dA (0.5 mg, as a control to compare how additional N atom at 8 position of nucleobase affects reactivity NH2—C6 group with NDS) and analysed at intervals using LC/MS.

The mark [4] stands for this setting: buffer, 24 h, 0.5 mg/mL, pH 5.5.
[5] abbreviates: buffer, 48 h, 0.5 mg/mL, pH 5.5.
[6] abbreviates: buffer, 120 h, 0.5 mg/mL, pH 5.5.

As for `Nc1nc(Cl)nc2c1ncn2[C@H]1C[C@H](O)[C@@H](CO)O1` [2-Cl-dA, 2-chloro-2′-deoxyadenosine], in data set [1], the “Stability in 1×ORS buffer (formation of products)” value is given as “did not lead to any products”. Further, the “In (remaining nucleoside)” value in data set [2] (NDS buffer, 24 h) is listed as 4.599; in data set [2] (NDS buffer, 48 h) it was 4.592; in data set [2] (NDS buffer, 120 h), 4.57. For the same compound, the Remaining nucleoside in data set [2] (NDS buffer, 24 h) was 99.42%; in data set [2] (NDS buffer, 48 h), 98.66%; in data set [2] (NDS buffer, 120 h), 96.54%. Further, the “Reaction in NDS buffer (products formed; deaminated nucleoside)” value (from here on “Reaction in NDS buffer”) in data set [2] (NDS buffer) is recorded as “react in the NDS buffer giving rise to 1 product”. The “Deamination in NDS buffer, times slower than 2′-dA” value in data set [2] (NDS buffer, same conditions as 2′-dA) was 5.5 ×.
Turning to `Nc1ncnc2c1nnn2[C@@H]1O[C@H](CO)[C@@H](O)[C@H]1O` [8-aza-A, 8-aza-adenosine], the “In (nucleoside peak area %)” value in data set [3] (24 h) stood at 4.592; in data set [3] (96 h), 4.538; in data set [3] (120 h), 4.519; in data set [3] (146 h), 4.5. Also, the “Remaining nucleoside, peak area %” value is 98.65 peak area % in data set [3] (24 h), 93.49 peak area % in data set [3] (96 h), 91.74 peak area % in data set [3] (120 h) and 90 peak area % in data set [3] (146 h). The “Reaction in NDS buffer” value in data set [3] is reported as “react in the NDS buffer giving rise to 1 product”. Besides, in data set [3] (same conditions as 2′-dA), the “Deamination in NDS buffer, times slower than 2′-dA” value came to 3.2 ×.
Turning to `Nc1ncnc2c1ncn2[C@H]1C[C@H](O)[C@@H](CO)O1` [dA, 2′-deoxyadenosine], the “Reaction in NDS buffer” value in data set [2] (NDS buffer) and in data set [3] was “react in the NDS buffer giving rise to 1 product” each time. The “In (remaining nucleoside)” value in data set [2] (setting [4]) came out at 4.571; in data set [2] (setting [5]), 4.531; in data set [2] (setting [6]), 4.416. For the same compound, the Remaining nucleoside in data set [2] (setting [4]) came out at 96.66%; in data set [2] (setting [5]) it was 92.85%; in data set [2] (setting [6]), 82.77%. Besides, the “In (nucleoside peak area %)” value in data set [3] (24 h) was 4.545; in data set [3] (96 h), 4.352; in data set [3] (120 h), 4.29; in data set [3] (146 h) it was 4.248. Besides, the “Remaining nucleoside, peak area %” value in data set [3] (24 h) is 94.15 peak area %; in data set [3] (96 h), 77.6 peak area %; in data set [3] (120 h), 73 peak area %; in data set [3] (146 h), 70 peak area %.
